Source: the SangsterLogP compilation

Tests used:
[1] = method code SF-AS, from DOI: 10.1016/j.bmc.2004.10.037, PMID: 15653345
[2] = method code SF-HPLC, from DOI: 10.1248/cpb.47.1081, PMID: 10478463; settings: pH 6.5
[3] = method code SF-AS, from DOI: 10.3109/03639048709068705
[4] = not given; remark: listed apart in the source
[5] = not given; remark: listed apart in the source
[6] = not given; remark: listed apart in the source
[7] = not given; remark: listed apart in the source
[8] = method code SF-HPLC, from DOI: 10.1023/a:1016359301852, PMID: 24271710
[9] = not given; remark: listed apart in the source
[10] = method code SF-RC, from DOI: 10.1016/0361-9230(85)90153-4, PMID: 2413968
[11] = not given; remark: listed apart in the source
[12] = not given; remark: listed apart in the source
[13] = not given; remark: listed apart in the source
[14] = from Jayashree, Bs.; Sahu, A.; MM, S.; Venugopala, K. (2006). Synthesis, characterization and determination of partition coefficient of some triazolo thiadiazinyl chlorocoumarin derivatives for their …; settings: pH 7.4
[15] = method code SF-HPLC, from Thijssen, W. (1981). The relationship between Log P, Rm, log k' and the constants pi and f: a study on penicillins. Eur J Med Chem, 16(5)449-452.
[16] = method code SF-HPLC, from DOI: 10.1016/j.ejmech.2003.12.002, PMID: 15051170
[17] = method code SF-AS, from PMID: 872227; settings: pH 7.2
[18] = method code SF-HPLC, from DOI: 10.1016/j.ejps.2012.04.024, PMID: 22609526
[19] = not given; remark: listed apart in the source
[20] = not given; remark: listed apart in the source

Structure (SMILES): C#CCNC(Cc1ccc(O)c2ncccc12)C(=O)OCC (centres undefined)
- logP [1]: 0.71

Structure (SMILES): CON=C(C(=O)NC1C(=O)N2C(C(=O)OC(C)OC(=O)OC(C)C)=CCSC12)c1csc(N)n1 (centres undefined)
- logD [2]: 1.37

Structure (SMILES): CC(C)NCC(COc1cccc2ccccc12)OC(=O)C(C)(C)C (centres undefined)
- logP [3]: 6.44

Structure (SMILES): Nc1ccc(-c2ccc3cc(OCCF)ccc3n2)cc1
- logP: 2.4

Structure (SMILES): CC(=O)N(C[C@@H](O)CO)c1c(I)c(C(=O)NC(CO)CO)c(I)c(N(C(C)=O)[C@@H](O)CO)c1I
- logP [4]: -2.64

Structure (SMILES): Cc1cn2c(n1)C1CC(c3ccccc3)CCC1C(C(=O)N(C)C)=C2 (centres undefined)
- logP [5]: 2.77

Structure (SMILES): CC=CC(=O)OC(CNC(C)C)COc1cccc2ccccc12 (centres undefined)
- logP [6]: 3.78

Structure (SMILES): CC(C)N(CCC(C(N)=O)c1ccc(-c2ccccc2)cc1)C(C)C (centres undefined)
- logP [7]: 3.66

Structure (SMILES): C#CC1(O)CC[C@H]2[C@@H]3CCC4=CC(=O)CC[C@]4(C)[C@H]3CC[C@@]21C (stereo in doubt)
- logP [8]: 3.11

Structure (SMILES): Cc1cn(C2CC(N=[N+]=[N-])C(COC(=O)C(=O)N3CCCC3C(=O)O)O2)c(=O)[nH]c1=O (centres undefined)
- logP [9]: 0.16

Structure (SMILES): NC(=O)[C@@H]1CCCN1C(=O)[C@H](Cc1cnc[nH]1)NC(=O)[C@@H]1CCC(=O)N1
- logP [10]: -1.42

Structure (SMILES): CCN(CC)C(=O)C(C#N)=Cc1cc(OC(C)=O)c(OC(C)=O)c([N+](=O)[O-])c1
- logP [11]: 1.23

Structure (SMILES): C#CC1(OC(=O)c2ccn(C)c2)CCC2C3CCC4=CC(=O)CCC4(C)C3CCC21C (centres undefined)
- logP [8]: 4.49

Structure (SMILES): CCOCn1c(Cc2cc(C)cc(C)c2)c(C(C)C)c(=O)[nH]c1=O
- logP [12]: 3.46

Structure (SMILES): CC1N=C2C3=C(CCC(c4ccccc4)C3)C(C(N)=O)=CN2C1C (centres undefined)
- logP [5]: 3.21

Structure (SMILES): COc1ccc(CCNCC(O)COc2cccc(C)c2)cc1OC (centres undefined)
- logP [13]: 3

Structure (SMILES): O=c1oc2ccc(Cl)cc2cc1C1=Nn2c(nnc2-c2ccccc2O)SC1
- logD [14]: 0.36

Structure (SMILES): Cc1onc(-c2c(Cl)cccc2Cl)c1C(=O)NC1C(=O)N2C1S(=O)C(C)(C)C2C(=O)O (centres undefined)
- logP [15]: 2.57

Structure (SMILES): COC(=O)C(C)NP(=O)(OCC1C=CC(n2cc(C)c(=O)[nH]c2=O)O1)Oc1ccccc1Br (centres undefined)
- logP [16]: 0.95

Structure (SMILES): CCc1c(Sc2ccccc2)n(COCc2ccccc2)c(S)nc1=O
- logP [12]: 3.44

Structure (SMILES): CC(=O)N(CCO)c1c(I)c(C(=O)NC(CO)CO)c(I)c(C(=O)NC(CO)CO)c1I
- logP [4]: -2.49

Structure (SMILES): O=c1oc2ccc(Cl)cc2cc1C1=Nn2c(COc3ccc(Cl)cc3Cl)nnc2SC1
- logD [14]: 1.4

Structure (SMILES): CCCCOc1ccc(NC(=O)OCCN2CCOCC2)c(C)c1
- logD [17]: 2.82

Structure (SMILES): CCCC(=O)Oc1cc(C=C(C#N)C(=O)N(CC)CC)cc([N+](=O)[O-])c1OC(=O)CCC
- logP [11]: 3.15

Structure (SMILES): Cc1onc(-c2c(Cl)ccc(O)c2F)c1C(=O)NC1SC2N(C1=O)C(C(=O)O)C2(C)C (centres undefined)
- logP [15]: 2.23

Structure (SMILES): COc1cc(OC)c2c(=O)c(OC)c(-c3ccc(OC)c(OC)c3)oc2c1
- logP [18]: 3.85

Structure (SMILES): C(=C\c1ccc(/C=C/c2ccncc2)cc1)/c1ccncc1
- logP [19]: 3.93

Structure (SMILES): CCOCn1c(Cc2ccccc2)c(CC)c(=O)[nH]c1=O
- logP [12]: 0.74

Structure (SMILES): CC1N=C2C3=C(CCC(c4ccccc4)C3)C(C(=O)NCCO)=CN2C1C (centres undefined)
- logP [5]: 2.81

Structure (SMILES): CC1CN(C2C=CC(COP(=O)(NC(C)C(=O)O)Oc3ccc(Br)cc3Cl)O2)C(=O)NC1=O (centres undefined)
- logP [16]: 1.81

Structure (SMILES): CCCCCCOc1ccc(NC(=O)OCCN2CCOCC2)c(C)c1
- logD [17]: 3.9

Structure (SMILES): CCN(CC)C(=O)C(C#N)=Cc1cc(OC(=O)c2ccccc2)c(OC(=O)c2ccccc2)c([N+](=O)[O-])c1
- logP [11]: 3.44

Structure (SMILES): CC(C)N(CCC(C(N)=O)c1ccccc1Cl)C(C)C (centres undefined)
- logP [7]: 2.83

Structure (SMILES): CCCCNc1cc(C(=O)O)cc(S(N)(=O)=O)c1Oc1ccccc1
- logP [20]: 3.21
